Read-outs that look alike come from different tables or passages of the source.
Tested on: human umbilical vein endothelial cells (HUVECs)
Experiment: Tube formation assay of HUVEC on Matrigel
Assay type: cell-based
Details: for formation of microvascular network of HUVEC (pictures): FIGS. 6-9; for inhibition at 50 µM: Homo sapiens, read-out: Percent Inhibition
Method: In order to do the tube formation assay, blood vessel endothelial cells, human umbilical vein endothelial cells (HUVECs), were isolated from freshly obtained cords after cesarean section according to Grant's method (Grants D S, et al., Cell, 58, pp933-943, 1989). They were identified by immunocytochemial staining with anti-Factor VIII antibody. HUVECs grown with Matrigel (BD Bioscience, Bedford, Mass., USA), were treated with the above Horse chestnut extract of the Example 1, and further incubated at 37° C. for 8-16 hrs. As a control, above procedure was repeated without Horse chestnut extract.
In order to identify the component responsible for anti-aniogenic acvity of Horse chestnut extract, components identified as in EXAMPLE 2, were subjected to the tube formation assay as described above. Since those chemicals are not soluble in water, they were dissolved in dimethyl sulfoxide (DMSO). In order to exclude the effect of solvent, HUVECs treated with the same amount of DMSO were used as a control. FIG. 5 is a picture of the 1% DMSO-treated HUVEC control, and FIGS. 6-9 are pictures showing the effect of individual components of the Horse chestnut on tube formation. […] Tubular network was disconnected by treatment with 50 μM of quercitrin, and esculetin.
The area of the tube was determined by image analysis program Image-Pro Plus® (Media Cybernetics, USA), and the results were summarized in Tables 1 and 2. […]

[1] = HUVEC, 50 μM, vs 1% DMSO control
[2] = HUVEC tube formation, 50 μM, vs 1% DMSO control

O=c1ccc2cc(O)c(O)cc2o1 [Esculetin, esculetin]
formation of microvascular network of HUVEC (pictures) (50 μM): disconnected | Area of the Tube (%) [1]: 17% | inhibition at 50 µM [2]: 83%

C[C@@H]1O[C@@H](Oc2c(-c3ccc(O)c(O)c3)oc3cc(O)cc(O)c3c2=O)[C@H](O)[C@H](O)[C@H]1O [Quercitrin, quercitrin]
Area of the Tube (%) [1]: 36% | inhibition at 50 µM (HUVEC): 64%

aescin
formation of microvascular network of HUVEC (pictures) (50 μM): completely inhibited | Percent Inhibition [2]: 100 | Area of the Tube (%) [1]: 0%

O=c1ccc2cc(O[C@@H]3O[C@H](CO)[C@@H](O)[C@H](O)[C@H]3O)c(O)cc2o1 [Esculin, esculin]
formation of microvascular network of HUVEC (pictures) (50 μM): less than that by esculetin | Area of the Tube (%) [1]: 85% | inhibition at 50 µM (HUVEC): 15%

From patent US9962331B2, “Composition containing horse chestnut extract” (priority 2001, dated 2018)
